From ChEMBL document CHEMBL5370610, “Urotensin II Receptor Modulation with 1,3,4-Benzotriazepin-2-one Tetrapeptide Mimics” (J Med Chem, 2023) come the findings set out here.

Each structure is given as a SMILES string. The source made the active and inactive calls. The rule behind the calls is not given here.

Assay [1] relates to HEK293. Description: Agonist activity at RLucII-tagged Galpha-13 (unknown origin) expressed in HEK293 cells co-expressing human UT/GFP10-tagged G-gamma assessed as activation of Galpha-13 at 10^-5 M by BRET assay relative to hUII. The following applies: filed as agonist, dose 1.0 10^-5M. The class given is cell-based. A general note: In BRET a luciferase serves as donor, and the signal depends on an acceptor being close.

Assay [2] concerns the target T1, Guanine nucleotide-binding protein G(q) subunit alpha (Homo sapiens) (UniProt P50148).
T1 sequence (whole entry): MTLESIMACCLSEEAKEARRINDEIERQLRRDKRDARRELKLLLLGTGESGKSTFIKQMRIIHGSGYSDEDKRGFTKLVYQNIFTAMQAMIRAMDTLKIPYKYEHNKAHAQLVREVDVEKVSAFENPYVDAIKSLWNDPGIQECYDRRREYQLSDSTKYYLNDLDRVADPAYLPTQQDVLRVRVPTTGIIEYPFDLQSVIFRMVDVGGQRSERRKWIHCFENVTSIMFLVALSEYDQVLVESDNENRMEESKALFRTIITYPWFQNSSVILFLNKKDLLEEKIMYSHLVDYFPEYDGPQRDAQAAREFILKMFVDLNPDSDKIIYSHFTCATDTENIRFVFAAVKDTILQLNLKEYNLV
Nature of the assay: Agonist activity at RLucII-tagged Galpha-q (unknown origin) expressed in HEK293 cells co-expressing human UT/GFP10-tagged G-gamma assessed as activation of Galpha-q at 10^-5 M by BRET assay relative to hUII. The class given is cell-based. The following applies: filed as agonist, dose 1.0 10^-5M.

Assay [3] is described as follows: Agonist activity at RLucII-tagged Galpha-13 (unknown origin) expressed in HEK293 cells co-expressing human UT/GFP10-tagged G-gamma assessed as activation of Galpha-13 by BRET assay. The class given is cell-based.
Assay [4] concerns the target T2, Beta-arrestin-1 (Homo sapiens, UniProt P49407). Nature of the assay: Agonist activity at RLucII/GFP10-tagged beta-arrestin-1 (unknown origin) recruitment expressed in HEK293 cells co-expressing human UT assessed as beta-arrestin recruitment by BRET assay. The class given is cell-based.
The subject of assay [5] is Aorta. Description: Ex vivo modulatory effect on URP-induced contractile activity in Sprague-Dawley rat aortic ring at 10^-6 M pretreated for 30 mins followed by URP addition. The class given is functional, tissue-based. Conditions: dose 1.0 10^-6M.
Assay [6] in a line: Agonist activity at RLucII-tagged Galpha-i (unknown origin) expressed in HEK293 cells co-expressing human UT/GFP10-tagged G-gamma assessed as activation of Galpha-i by BRET assay. The format is cell-based.
Assay [7] addresses T2, Beta-arrestin-1. Description: Agonist activity at RLucII/GFP10-tagged beta-arrestin-1 (unknown origin) expressed in HEK293 cells co-expressing human UT assessed as beta-arrestin recruitment at 10^-5 M by BRET assay relative to hUII. The format is cell-based. The following applies: filed as agonist, dose 1.0 10^-5M. On the technique in general: Recruitment of arrestin is a read-out of receptor activation apart from second messengers.

The target in assay [8] is T3, Guanine nucleotide-binding protein G(q) subunit alpha (Homo sapiens, UniProt P50148).
T3 sequence (P50148 whole entry): T1 sequence (whole entry)
Description: Agonist activity at RLucII-tagged Galpha-q (unknown origin) expressed in HEK293 cells co-expressing human UT/GFP10-tagged G-gamma assessed as activation of Galpha-q by BRET assay. The class given is cell-based.

Assay [9] relates to HEK293. Description: Agonist activity at RLucII-tagged Galpha-i (unknown origin) expressed in HEK293 cells co-expressing human UT/GFP10-tagged G-gamma assessed as activation of Galpha-i at 10^-5 M by BRET assay relative to hUII. The class given is cell-based. The following applies: filed as agonist, dose 1.0 10^-5M.
Assay [10] has as its system Aorta. Nature of the assay: Ex vivo modulatory effect on hUII-induced contractile activity in Sprague-Dawley rat aortic ring at 10^-6 M pretreated for 30 mins followed by hUII addition. The class given is functional, tissue-based. Conditions: dose 1.0 10^-6M.
The subject of assay [11] is HEK293. Description: Antagonist activity at hUII-activated RLucII-tagged Galpha-i (unknown origin) expressed in HEK293 cells co-expressing human UT/GFP10-tagged G-gamma at 10^-6 M by BRET assay (reference value: 100 +/- 5 %). The format is cell-based. Conditions: filed as antagonist, dose 1.0 10^-6M.
Assay [12] can be described thus: Antagonist activity at hUII-activated RLucII-tagged Galpha-i (unknown origin) expressed in HEK293 cells co-expressing human UT/GFP10-tagged G-gamma by BRET assay (reference value: 7.41 +/- 0.15). The class given is cell-based.
Assay [13] relates to Aorta. Nature of the assay: Ex vivo modulatory effect on URP-induced contractile activity in Sprague-Dawley rat aortic ring (reference value: 8.06 +/- 0.27). The class given is functional, tissue-based.
In assay [14] the target is T1, Guanine nucleotide-binding protein G(q) subunit alpha (Homo sapiens). Description: Antagonist activity at URP-activated RLucII-tagged Galpha-q (unknown origin) expressed in HEK293 cells co-expressing human UT/GFP10-tagged G-gamma at 10^-6 M by BRET assay (reference value: 100 +/- 4 %). The format is cell-based. The following applies: filed as antagonist, dose 1.0 10^-6M.

Assay [15] in a line: Antagonist activity at URP-activated RLucII-tagged Galpha-i (unknown origin) expressed in HEK293 cells co-expressing human UT/GFP10-tagged G-gamma by BRET assay (reference value: 7.10 +/- 0.19). The class given is cell-based.
The subject of assay [16] is HEK293. Nature of the assay: Antagonist activity at hUII-activated RLucII-tagged Galpha-q (unknown origin) expressed in HEK293 cells co-expressing human UT/GFP10-tagged G-gamma at 10^-6 M by BRET assay (reference value: 100 +/- 4 %). The class given is cell-based. The following applies: filed as antagonist, dose 1.0 10^-6M.
Assay [17] deals with HEK293. Description: Antagonist activity at URP-activated RLucII-tagged Galpha-i (unknown origin) expressed in HEK293 cells co-expressing human UT/GFP10-tagged G-gamma at 10^-6 M by BRET assay (reference value: 100 +/- 7 %). Conditions: filed as antagonist, dose 1.0 10^-6M. The format is cell-based.
In assay [18] the test system is Aorta. Nature of the assay: Ex vivo modulatory effect on hUII-induced contractile activity in Sprague-Dawley rat aortic ring at 10^-6 M pretreated for 30 mins followed by hUII addition (reference value: 100 +/- 9 %). The format is functional. Conditions: 0.5 h, dose 1 10^-6M.
Assay [19] has as its system Aorta. Description: Ex vivo modulatory effect on URP-induced contractile activity in Sprague-Dawley rat aortic ring at 10^-6 M pretreated for 30 mins followed by URP addition (reference value: 100 +/- 8 %). The format is functional. The following applies: 0.5 h, dose 1 10^-6M.
For assay [20], the target named is T3, Guanine nucleotide-binding protein G(q) subunit alpha. Nature of the assay: Antagonist activity at URP-activated RLucII-tagged Galpha-q (unknown origin) expressed in HEK293 cells co-expressing human UT/GFP10-tagged G-gamma by BRET assay (reference value: 7.33 +/- 0.10). The class given is cell-based.
Assay [21] deals with HEK293. Nature of the assay: Agonist activity at RLucII-tagged Galpha-i (unknown origin) expressed in HEK293 cells co-expressing human UT/GFP10-tagged G-gamma assessed as activation of Galpha-i at 10^-5 M by BRET assay. The format is cell-based. The following applies: dose 1.0 10^-5M.
Assay [22] deals with T1, Guanine nucleotide-binding protein G(q) subunit alpha (Homo sapiens). Description: Agonist activity at RLucII-tagged Galpha-q (unknown origin) expressed in HEK293 cells co-expressing human UT/GFP10-tagged G-gamma assessed as activation of Galpha-q at 10^-5 M by BRET assay. The format is cell-based. The following applies: dose 1.0 10^-5M.
The subject of assay [23] is Aorta. Description: Ex vivo modulatory effect on hUII-induced contractile activity in Sprague-Dawley rat aortic ring (reference value: 8.37 +/- 0.08). The class given is functional, tissue-based.
Assay [24] addresses T3, Guanine nucleotide-binding protein G(q) subunit alpha. Description: Antagonist activity at hUII-activated RLucII-tagged Galpha-q (unknown origin) expressed in HEK293 cells co-expressing human UT/GFP10-tagged G-gamma by BRET assay (reference value: 8.26 +/- 0.09). The format is cell-based.

T2 sequence (P49407 whole entry): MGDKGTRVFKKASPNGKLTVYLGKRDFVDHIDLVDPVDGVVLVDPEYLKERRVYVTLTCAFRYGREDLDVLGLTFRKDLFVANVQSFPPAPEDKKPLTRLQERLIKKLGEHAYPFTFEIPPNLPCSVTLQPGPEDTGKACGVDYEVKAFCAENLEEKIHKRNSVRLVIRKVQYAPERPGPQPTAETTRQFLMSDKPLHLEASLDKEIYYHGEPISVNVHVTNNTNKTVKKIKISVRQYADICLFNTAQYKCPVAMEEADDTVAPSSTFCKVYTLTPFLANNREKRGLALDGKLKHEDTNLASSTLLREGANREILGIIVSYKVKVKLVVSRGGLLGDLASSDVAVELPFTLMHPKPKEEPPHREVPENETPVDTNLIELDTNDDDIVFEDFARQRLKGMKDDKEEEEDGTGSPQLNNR

`COc1ccc(/C=C/C2=NN(CCCCN)C(=O)N(Cc3ccc(-c4ccccc4)cc3)c3cc(C(=O)NCCOc4ccccc4)ccc32)cc1`: the Emax with HEK293 [1] was 102%; in assay [2], 52%; on Beta-arrestin-1 [7] it was 78%; in the assay on HEK293 [9], 50%. Further, the EC50 in [3] was 45.7 nM; on Beta-arrestin-1 [4], 0.49 nM; in [6], above 10000 nM; in assay [8], above 10000 nM. Further, the outcome with Aorta [5] and in the assay on Aorta [10] was Active.

With `NCCCCN1N=C(/C=C/c2ccc(O)cc2)c2ccc(C(=O)NCC(c3ccccc3)c3ccccc3)cc2N(Cc2ccc(-c3ccccc3)cc2)C1=O`, the maximum response (Emax) in the assay with HEK293 [1] turned out to be 198%; with HEK293 [11] it was 95%; in [14], 103%; in the assay on HEK293 [16], 83%; in the assay on HEK293 [17], 89%; at Beta-arrestin-1 [7] it was 76%. For the same compound, the half-maximal effective concentration (EC50) in assay [12] is 53.7 nM; in the assay with Aorta [13], 44.7 nM; in [15], 102 nM; in [3] it was 200 nM; on Beta-arrestin-1 [4], 95.5 nM; in assay [20], 25.1 nM. The 50% effective concentration (EC50) is 5.5 nM in the assay with Aorta [23] and 6.92 nM in assay [24]. The Emax at 1 µM with Aorta [18] was 77%; in the assay with Aorta [19] it was 56%. Moreover, the outcome (in the assay with HEK293 [21]; in [22]) was inactive.

In general, Emax refers to the size of the effect at its maximum, as opposed to the concentration needed. A word on the EC50: it is the concentration giving half of the maximal effect.
